The values that follow come from ChEMBL document CHEMBL1201862, “PubChem BioAssay data set” (2004).

Active and inactive are the calls of the source.

Test [1] deals with T1, Exodeoxyribonuclease V (Escherichia coli (strain K12), UniProt P04993+P07648+P08394).
T1 sequence (P04993 whole entry): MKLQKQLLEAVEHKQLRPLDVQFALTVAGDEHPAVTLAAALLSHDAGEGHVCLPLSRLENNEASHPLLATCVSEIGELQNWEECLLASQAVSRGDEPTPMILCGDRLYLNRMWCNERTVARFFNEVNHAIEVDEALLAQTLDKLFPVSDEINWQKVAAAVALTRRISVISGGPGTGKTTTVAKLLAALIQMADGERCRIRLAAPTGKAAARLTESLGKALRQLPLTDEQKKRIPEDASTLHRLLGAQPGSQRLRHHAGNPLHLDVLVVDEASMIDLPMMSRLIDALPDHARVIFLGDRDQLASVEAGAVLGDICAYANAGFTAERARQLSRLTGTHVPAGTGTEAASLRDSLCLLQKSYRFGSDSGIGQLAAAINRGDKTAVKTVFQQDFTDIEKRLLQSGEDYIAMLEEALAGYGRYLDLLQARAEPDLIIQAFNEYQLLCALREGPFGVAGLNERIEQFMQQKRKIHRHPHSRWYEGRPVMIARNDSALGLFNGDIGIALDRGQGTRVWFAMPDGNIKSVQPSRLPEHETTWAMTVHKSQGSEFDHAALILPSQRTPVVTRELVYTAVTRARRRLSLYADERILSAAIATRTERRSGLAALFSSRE
T1 sequence (P07648 whole entry): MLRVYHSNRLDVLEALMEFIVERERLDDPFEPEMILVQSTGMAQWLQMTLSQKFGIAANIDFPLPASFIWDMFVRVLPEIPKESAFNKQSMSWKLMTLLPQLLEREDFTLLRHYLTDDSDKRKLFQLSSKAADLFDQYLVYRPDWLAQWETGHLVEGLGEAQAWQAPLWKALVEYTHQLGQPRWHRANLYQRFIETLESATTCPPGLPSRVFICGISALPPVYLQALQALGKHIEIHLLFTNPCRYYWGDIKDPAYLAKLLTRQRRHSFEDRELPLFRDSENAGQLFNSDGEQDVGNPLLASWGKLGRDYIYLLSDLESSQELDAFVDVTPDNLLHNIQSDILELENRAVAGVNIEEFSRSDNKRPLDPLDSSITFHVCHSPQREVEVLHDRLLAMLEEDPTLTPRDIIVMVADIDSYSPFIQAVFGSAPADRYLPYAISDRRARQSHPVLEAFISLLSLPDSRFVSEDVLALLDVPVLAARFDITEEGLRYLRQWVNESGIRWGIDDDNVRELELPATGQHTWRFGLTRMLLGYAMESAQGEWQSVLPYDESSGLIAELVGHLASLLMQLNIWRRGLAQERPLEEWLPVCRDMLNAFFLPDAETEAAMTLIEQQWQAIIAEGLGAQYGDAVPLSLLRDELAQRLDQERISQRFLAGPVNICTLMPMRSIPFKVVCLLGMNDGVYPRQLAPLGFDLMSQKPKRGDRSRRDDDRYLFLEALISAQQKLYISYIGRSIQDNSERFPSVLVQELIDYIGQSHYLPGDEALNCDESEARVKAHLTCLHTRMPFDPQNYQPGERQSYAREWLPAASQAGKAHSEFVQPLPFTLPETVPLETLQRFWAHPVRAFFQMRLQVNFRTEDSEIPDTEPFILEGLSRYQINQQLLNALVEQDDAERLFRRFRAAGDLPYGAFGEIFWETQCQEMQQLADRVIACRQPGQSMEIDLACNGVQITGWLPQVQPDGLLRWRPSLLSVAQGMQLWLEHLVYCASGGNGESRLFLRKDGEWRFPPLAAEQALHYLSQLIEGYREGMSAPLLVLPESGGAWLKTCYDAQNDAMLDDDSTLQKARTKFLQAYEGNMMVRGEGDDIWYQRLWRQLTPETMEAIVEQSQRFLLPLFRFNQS
T1 sequence (P08394 whole entry): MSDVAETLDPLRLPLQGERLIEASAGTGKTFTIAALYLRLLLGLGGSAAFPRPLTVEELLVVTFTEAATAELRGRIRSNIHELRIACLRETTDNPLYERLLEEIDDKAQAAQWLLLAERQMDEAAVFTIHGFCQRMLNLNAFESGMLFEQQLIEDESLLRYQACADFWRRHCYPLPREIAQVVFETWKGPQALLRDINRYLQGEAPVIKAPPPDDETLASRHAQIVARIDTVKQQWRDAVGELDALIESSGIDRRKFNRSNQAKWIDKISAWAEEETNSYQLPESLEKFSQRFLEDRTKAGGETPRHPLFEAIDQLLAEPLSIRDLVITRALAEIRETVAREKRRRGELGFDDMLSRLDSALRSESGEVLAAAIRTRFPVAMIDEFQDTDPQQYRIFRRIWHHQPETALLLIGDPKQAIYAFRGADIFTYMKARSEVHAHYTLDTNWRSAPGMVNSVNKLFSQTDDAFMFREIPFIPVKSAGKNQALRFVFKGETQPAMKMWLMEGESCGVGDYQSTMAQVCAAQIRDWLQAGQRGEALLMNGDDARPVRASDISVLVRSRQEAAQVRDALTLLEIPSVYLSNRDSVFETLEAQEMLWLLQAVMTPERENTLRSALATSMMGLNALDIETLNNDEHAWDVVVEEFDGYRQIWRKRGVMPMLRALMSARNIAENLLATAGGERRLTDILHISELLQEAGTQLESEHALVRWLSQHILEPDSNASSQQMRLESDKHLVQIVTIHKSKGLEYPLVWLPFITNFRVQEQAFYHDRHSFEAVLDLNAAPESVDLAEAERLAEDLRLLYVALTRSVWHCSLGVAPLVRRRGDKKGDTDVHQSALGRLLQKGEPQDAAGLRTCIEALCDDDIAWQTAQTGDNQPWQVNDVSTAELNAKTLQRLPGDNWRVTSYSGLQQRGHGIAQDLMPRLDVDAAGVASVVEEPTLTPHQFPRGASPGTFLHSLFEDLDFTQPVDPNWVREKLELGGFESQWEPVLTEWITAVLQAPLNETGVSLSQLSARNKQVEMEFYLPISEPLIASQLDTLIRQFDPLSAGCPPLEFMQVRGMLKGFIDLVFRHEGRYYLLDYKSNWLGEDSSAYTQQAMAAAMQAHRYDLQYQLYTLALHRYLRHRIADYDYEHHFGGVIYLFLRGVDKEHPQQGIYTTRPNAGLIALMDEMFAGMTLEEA
Nature of the test: E. coli RecBCD inhibitors, dose response, counter-screen for AddAB inhibitor project, absorbance, V66 E. coli, mutant T4 phage (AID 492957). The class given is functional, cell-based, Escherichia coli str. K-12 substr. MG1655.

A short description of test [2]: Counterscreen for AddAB inhibitors: absorbance-based bacterial cell-based high throughput dose response assay for inhibitors of bacterial viability. [Related pubchem assays (depositor defined):AID435030, AID449728, AID449731, AID488942, AID488955, AID488956]. The class given is functional.
Test [3] is described as follows: cells. The class given is functional, cell-based.
Test [4] concerns Streptococcus. Kind of test: Group A Streptococcus viability loss, dose response, counter-screen for streptokinase expression inhibitor project, luminescence, BacTiterGlo (AID 1915).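 Note: potency for reduction of bacterial viability or growth.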 The format is functional, organism-based. In general terms: Counterscreens check selectivity or assay interference.

By IC50 is commonly meant the point on the concentration scale where inhibition reaches its midpoint. By EC50 is commonly meant the concentration giving half of the maximal effect. Regarding `Oc1c(C(c2ccccc2Cl)N2CCCC2)ccc2cccnc12` (stereo not drawn), the results for the IC50 in test [1] and in test [2] were 102 µM (inactive) and 95.3 µM (inactive), respectively. In addition, in test [3], the concentration for a half-maximal effect (EC50) is > 350 µM (not active).

`CCc1ccc(S(=O)(=O)/N=C2\C=C(Nc3ccc(C(=O)O)cc3)C(=O)c3ccccc32)cc1`: the EC50 in test [4] was 6.26 µM (active).

On to `COc1cccc(/C=N/Nc2ccc([N+](=O)[O-])cn2)c1O`, for which the EC50 was 1.65 µM (active) in test [4] and 5.16 µM (active) in test [3]. In addition, the IC50 in test [1] and in test [2] was > 118 µM (inactive) each time.
